Laboratory results published in patent publication US20180118721A1, “PYRIMIDINE DERIVATIVES” (Merck Patent GmbH, priority 2015, published 2018).

Experiments:
[1] = target: T1, humanMTH1 (aminoacids 42 to 197) (Homo sapiens, UniProt P36639); test: Binding affinities and kinetics on MTH1 surfaces by surface plasmon resonance (SPR); conditions: on MTH1
T1 construct: humanMTH1 (aminoacids 42 to 197); His tag at the N-terminus; purchased Abnova ab99390; host or cells: E. coli

[2] = Microsomal stability (intrinsic clearance), human; format: in vitro ADME; conditions: human liver microsomes, 0.5 mg/ml protein, Clint
Description: (§1) A microsomal stability assay is used to measure in vitro clearance (Clint). The assay involves measuring the rate of disappearance of a compound due to its intrinsic attitude to be metabolized (“intrinsic” meaning that the disappearance is not affected by other properties like permeability, binding etc. that play a role when quantifying in vivo clearance). The microsomal stability (intrinsic clearance, Clint) and thus metabolic stability is generally given as μl/min/mg protein. It can be visualized as the volume of solution that 1 mg of microsomes is able to clear of the compound in one minute.
(§2) A Tecan Genesis workstation (RSP 150/8) was used for to perform the microsomal incubations. Analysis was carried out using a Waters ACQUITY UPLC system coupled to an ABSciex API3000 mass spectrometer. Data analysis was performed using Assay Explorer (Symyx).
(§3) Column: Acquity UPLC BEH C18, 2.1×50 mm, 1.7 μm (Waters) Mobile phases: A=0.1% formic acid in water; B=acetonitrile
(§4) Flow rate: 0.750 mL/min; Detection: ESI, MRM; Injection: 10 μL; Column temperature: 50° C.
(§5) • Potassium phosphate buffer: 0.05 M potassium phosphate buffer pH 7.4 containing 1 mM MgCl2 • NADPH (nicotinamide adenine dinucleotide phosphate): 22.5 mg NADPH-Na4 in 1.8 ml potassium phosphate buffer • Acetonitrile: 50 Vol % acetonitrile (1 volume acetonitrile, 1 volume water) • DMSO: 20 Vol % DMSO in water • Stock solution of 20 mg/ml human or mouse liver microsomes (protein)/ml in phosphate buffer • Stock solution of 10 mM compound in 100% DMSO
(§6) Dilution of test compounds was done in 2 steps starting from a 10 mM stock solution of the respective compound in 100% DMSO. First 4 μl stock solution was added to 196 μl of 20 Vol % DMSO. In a second step, 10 μl of the first dilution were added to 1590 μl potassium phosphate buffer to achieve a final concentration of 1.25 μM in the final compound dilution. Thus, the amount of organic solvent in the assay was kept to a minimum (<1%).
(§7) The human or mouse liver microsome (protein) solution to be used in the assay was prepared by mixing 750 μl stock solution (20 mg/ml) and 2250 μl potassium phosphate buffer to a final concentration of 5 mg/ml.
(§8) Incubation was carried out on a 96 deep well incubation plate. 160 μl per well of the final compound dilution were transferred onto the incubation plate. Four samples of each compound dilution were assayed. 20 μl/well liver microsome solution was added to each well and the samples were then preincubated for 5 min at 37° C. and 800 rpm agitation. Two reference compounds (verapamil and dextromethorphan) were used in parallel in every experiment and for each species (human or mouse microsomes) to ensure system performance and for comparison.
(§9) On a separate stop plate, 160 μl acetonitrile were added per well.
(§10) After preincubation, i.e. at time t1=0 minutes, 18 μl samples of incubated compound solution and were transferred and added per well (containing acetonitrile) on the stop plate to prevent a reaction (0 minutes control samples, 4 samples per compound). Equally, 18 μl samples of incubated reference compound solution were transferred and added per well (containing acetonitrile) on the stop plate at time t1=0 minutes and again after 30 minutes (t4), solubility and chemical stability of the compound were checked. […]

[3] = Microsomal stability (intrinsic clearance), mouse; format: in vitro ADME; conditions: mouse liver microsomes, 0.5 mg/ml protein, Clint
Description: as §1, §2, §3, §4, §5, §6, §7, §8, §9, §10

## CNc1cc(-c2cccc(Cl)c2Cl)nc(N)n1 [TH-287, reference compound]
[1]; calculated on the basis of the KD values
  residence time: < 1 min
[1]; value in brackets
  residence time: 0.9 min
[2]
  Microsomal stability human: 32 μl/min/mg prot.
[3]
  Microsomal stability mouse: 444 μl/min/mg prot.
